Assay: Ibuprofen concentration in 0.1 N HCl by HPLC UV
Format: physicochemical
Conditions: 1 g solid dispersion (=200 mg ibuprofen) or raw drug in 900 mL 0.1 N HCl, stirred at 100 rpm for 0.5 h
Protocol: (§1) Samples were taken and ibuprofen concentration was measured by HPLC UV.
as §1

- ibuprofen concentration: 0.030 µg/mL
SMILES: CC(C)Cc1ccc(C(C)C(=O)O)cc1 (stereo not shown) [ibuprofen]
